We go through one molecule from patent US20220325122A1, “Ink Set And Recording Method” (Seiko Epson Corporation, priority 2021, published 2022).

The conditions of the series: water at 20° C.; stated in words.

Molecules are shown by their SMILES.

On to `COCCOC` [ethylene glycol dimethyl ether], for which the miscibility with water result was “completely miscible with water”.
